The test concerns Corynespora cassiicola. The experiment in a line: Corynespora cassiicola liquid culture growth inhibition (PDB, 96-well microtiter plate, photometric at 620 nm). It is filed as cell-based. Conditions: 24 C, 3-4 days, compared to untreated control. The method, then: Conidia of the fungus from cryogenic storage were directly mixed into nutrient broth (PDB potato dextrose broth). A DMSO solution of the test compounds was placed into a microtiter plate (96-well format) and the nutrient broth containing the fungal spores was added to it. The test plates were incubated at 24 C and the inhibition of growth (% control of Corynespora cassiicola) was determined photometrically after 3-4 days at 620 nm. The activity of a compound is derived by comparing the inhibition of growth in the treated test solution to the growth in the untreated check. The concentration of the compounds was 6.7, 2.2, 0.74, 0.25, 0.082 and 0.027 ppm.

A value given as a limit tells only on which side of the number the result lay.

On to `Cc1cccc2c1ncn2C1=NC(C)(C)C(F)(F)c2ccccc21` [Compound 1], for which the inhibition at 6.7 ppm is not below 70%.

`Cc1ccc2c(ncn2C2=NC(C)(C)C(F)(F)c3ccccc32)c1C` [Compound 2] showed an inhibition at 6.7 ppm not below 70%.

As to `Cc1c(F)ccc2c1ncn2C1=NC(C)(C)C(F)(F)c2ccccc21` [Compound 3], the inhibition at 6.7 ppm is not below 70%.

Molecule `Cc1ccc2c(ncn2C2=NC(C)(C)C(F)(F)c3c(F)cccc32)c1C` [Compound 4] had an inhibition at 6.7 ppm not below 70%.

Turning to `Cc1cccc2c1ncn2C1=NC(C)(C)C(F)(F)c2cc(Cl)ccc21` [Compound 5], the inhibition at 6.7 ppm was not below 70%.

Consider `CC1(C)N=C(n2cnc3c4c(ccc32)CCC4)c2ccccc2C1(F)F` [Compound 6], for which the inhibition at 6.7 ppm is not below 70%.

A word on the inhibition: it is the percentage by which the read-out fell short of the control. A high value points to a strong effect.

The values are drawn from US20230098569A1, “METHODS OF CONTROLLING OR PREVENTING INFESTATION OF PLANTS BY THE PHYTOPATHOGENIC MICROORGANISM CORYNESPORA CASSIICOLA” (SYNGENTA CROP PROTECTION AG, priority 2020, published 2023).
